Values of other authors as cited in patent publication US20170360829A1, “TREATMENT OF VASCULAR ANOMALIES” (GILLIES MCINDOE RESEARCH INSTITUTE, priority 2016, published 2017).

Legend:
[1] = tested on: several tumoral cell lines
venous malformation (VM) = conditions: treatment of VM; review by van der Vleuten et al. (ref. 14)

Compound | IC50 relative to cisplatin [1] | effective in % of cases (venous malformation (VM))
[Pt(dmba)(aza-N1)(dmso)] complex 1 | lower IC50 than cisplatin | –
polidocanol | – | 82%
CCO [ethanol] | – | 74%
CCCCCCCCCCCCCCOS(=O)(=O)[O-].[Na+] [sodium tetradecyl sulfate] | – | 86%
bleomycin | – | 88%
